Results reported in patent US8633200B2, “Inhibitors of human immunodeficiency virus replication” (priority 2010, dated 2014).

Tested on: recombinant NL-Rluc virus (NL4-3 with Renilla Luciferase gene) in MT-2 cells
Assay: Inhibition of HIV replication (NL-Rluc luciferase reporter virus, MT-2 cells)
Type: cell-based, human immunodeficiency virus (HIV)
Settings: NL43, 120 h, read-out: Activity

For `Cc1nc2cc(-c3ccc4c(c3)CCCC4)nn2c(-c2ccc3c(c2)CCCO3)c1[C@H](OC(C)(C)C)C(=O)O` [Example 151, (S)-2-(tert-Butoxy)-2-(7-(chroman-6-yl)-5-methyl-2-(5,6,7,8-tetrahydronaphthalen-2-yl)pyrazolo[1,5-a]pyrimidin-6-yl)acetic acid], which EC50 is on record?
Its EC50 is < 0.1 µM.

`Cc1nc2cc(-c3ccc4c(c3)CCCC4)nn2c(-c2ccc(F)cc2)c1[C@H](OC(C)(C)C)C(=O)O` [Example 152, (S)-2-(tert-Butoxy)-2-(7-(4-fluorophenyl)-5-methyl-2-(5,6,7,8-tetrahydronaphthalen-2-yl)pyrazolo[1,5-a]pyrimidin-6-yl)acetic acid] was tested. Which EC50 did it give?
The EC50 was > 1 µM.

How did the EC50 turn out when `Cc1ccc(-c2c([C@H](OC(C)(C)C)C(=O)O)c(C)nc3cc(-c4ccc5c(c4)CCCC5)nn23)cc1` [Example 153, (S)-2-(tert-Butoxy)-2-(5-methyl-2-(5,6,7,8-tetrahydronaphthalen-2-yl)-7-(p-tolyl)pyrazolo[1,5-a]pyrimidin-6-yl)acetic acid] was run?
The EC50 was 0.1 to 1 µM.

How did the EC50 turn out when `Cc1nc2cc(-c3ccc4c(c3)CCCC4)nn2c(-c2ccc3c4c(ccnc24)CCO3)c1[C@H](OC(C)(C)C)C(=O)O` [Example 154, (2S)-2-(tert-Butoxy)-2-(7-(2,3-dihydropyrano[4,3,2-de]quinolin-7-yl)-5-methyl-2-(5,6,7,8-tetrahydronaphthalen-2-yl)pyrazolo[1,5-a]pyrimidin-6-yl)acetic acid] was run?
Its EC50 is > 1 µM.

How did the EC50 turn out when `Cc1nc2cc(-c3ccc4c(c3)CCCC4)nn2c(-c2ccc(Cl)cc2)c1[C@H](OC(C)(C)C)C(=O)O` [Example 155, (S)-2-(tert-Butoxy)-2-(7-(4-chlorophenyl)-5-methyl-2-(5,6,7,8-tetrahydronaphthalen-2-yl)pyrazolo[1,5-a]pyrimidin-6-yl)acetic acid] was run?
The EC50 was 0.1 to 1 µM.

How did the EC50 turn out when `Cc1ccc(-c2c([C@H](OC(C)(C)C)C(=O)O)c(C)nc3cc(-c4ccc5c(c4)CCCC5)nn23)c(Cl)c1` [Example 156, (2S)-2-(tert-Butoxy)-2-(7-(2-chloro-4-methylphenyl)-5-methyl-2-(5,6,7,8-tetrahydronaphthalen-2-yl)pyrazolo[1,5-a]pyrimidin-6-yl)acetic acid] was run?
The EC50 was > 1 µM.

How did the EC50 turn out when `Cc1nc2cc(-c3ccc4c(c3)CCCC4)nn2c(-c2ccc(Cl)cc2F)c1[C@H](OC(C)(C)C)C(=O)O` [Example 157, (2S)-2-(tert-Butoxy)-2-(7-(4-chloro-2-fluorophenyl)-5-methyl-2-(5,6,7,8-tetrahydronaphthalen-2-yl)pyrazolo[1,5-a]pyrimidin-6-yl)acetic acid] was run?
Its EC50 is 0.1 to 1 µM.

`Cc1nc2c(C)c(-c3cccc(Cl)c3)nn2c(-c2cc(F)c3c(c2C)CCCO3)c1[C@H](OC(C)(C)C)C(=O)O` [Example 158, (2S)-2-(tert-Butoxy)-2-(2-(3-chlorophenyl)-7-(8-fluoro-5-methylchroman-6-yl)-3,5-dimethylpyrazolo[1,5-a]pyrimidin-6-yl)acetic acid] was tested. Which EC50 did it give?
The EC50 was 0.1 to 1 µM.

`Cc1nc2c(C)c(-c3cccc(-c4cc(F)c5c(c4C)CCCO5)c3)nn2c(-c2cc(F)c3c(c2C)CCCO3)c1[C@H](OC(C)(C)C)C(=O)O` [Example 159, (2S)-2-(tert-Butoxy)-2-(7-(8-fluoro-5-methylchroman-6-yl)-2-(3-(8-fluoro-5-methylchroman-6-yl)phenyl)-3,5-dimethylpyrazolo[1,5-a]pyrimidin-6-yl)acetic acid] was tested. Which EC50 did it give?
Its EC50 is < 0.1 µM.

With `COc1ccncc1-c1cccc(-c2nn3c(-c4cc(F)c5c(c4C)CCCO5)c([C@H](OC(C)(C)C)C(=O)O)c(C)nc3c2C)c1` [Example 160, (2S)-2-(tert-Butoxy)-2-(7-(8-fluoro-5-methylchroman-6-yl)-2-(3-(4-methoxypyridin-3-yl)phenyl)-3,5-dimethylpyrazolo[1,5-a]pyrimidin-6-yl)acetic acid] as the molecule, how does the EC50 read?
Its EC50 is < 0.1 µM.

With `Cc1nc2c(C)c(-c3cccc(-c4ccc5c(cnn5C)c4)c3)nn2c(-c2cc(F)c3c(c2C)CCCO3)c1[C@H](OC(C)(C)C)C(=O)O` [Example 161, (2S)-2-(tert-Butoxy)-2-(7-(8-fluoro-5-methylchroman-6-yl)-3,5-dimethyl-2-(3-(1-methyl-1H-indazol-5-yl)phenyl)pyrazolo[1,5-a]pyrimidin-6-yl)acetic acid] as the molecule, how does the EC50 read?
The EC50 was < 0.1 µM.

For `Cc1nc2c(C)c(-c3cccc(-c4ccccc4F)c3)nn2c(-c2cc(F)c3c(c2C)CCCO3)c1[C@H](OC(C)(C)C)C(=O)O` [Example 162, (2S)-2-(tert-Butoxy)-2-(7-(8-fluoro-5-methylchroman-6-yl)-2-(2′-fluoro-[1,1′-biphenyl]-3-yl)-3,5-dimethylpyrazolo[1,5-a]pyrimidin-6-yl)acetic acid], which EC50 is on record?
Its EC50 is < 0.1 µM.

How did the EC50 turn out when `Cc1nc2c(C)c(-c3ccccc3)nn2c(-c2cc(F)c3c(c2C)CCCO3)c1[C@H](OC(C)(C)C)C(=O)O` [Example 163, (2S)-2-(tert-Butoxy)-2-(7-(8-fluoro-5-methylchroman-6-yl)-3,5-dimethyl-2-phenylpyrazolo[1,5-a]pyrimidin-6-yl)acetic acid] was run?
Its EC50 is < 0.1 µM.

Which EC50 does the source give for `Cc1nc2c(C)c(-c3cccc(-c4cccc(F)c4)c3)nn2c(-c2cc(F)c3c(c2C)CCCO3)c1[C@H](OC(C)(C)C)C(=O)O` [Example 164, (2S)-2-(tert-Butoxy)-2-(7-(8-fluoro-5-methylchroman-6-yl)-2-(3′-fluoro-[1,1′-biphenyl]-3-yl)-3,5-dimethylpyrazolo[1,5-a]pyrimidin-6-yl)acetic acid] here?
The EC50 was < 0.1 µM.

For `Cc1cc(-c2cccc(-c3cc4nc(C)c([C@H](OC(C)(C)C)C(=O)O)c(-c5cc(F)c6c(c5C)CCCO6)n4n3)c2)ccc1F` [Example 165, (2S)-2-(tert-Butoxy)-2-(2-(4′-fluoro-3′-methyl-[1,1′-biphenyl]-3-yl)-7-(8-fluoro-5-methylchroman-6-yl)-5-methylpyrazolo[1,5-a]pyrimidin-6-yl)acetic acid], which EC50 is on record?
The EC50 was < 0.1 µM.

`Cc1cc(F)ccc1-c1cccc(-c2cc3nc(C)c([C@H](OC(C)(C)C)C(=O)O)c(-c4cc(F)c5c(c4C)CCCO5)n3n2)c1` [Example 166, (2S)-2-(tert-Butoxy)-2-(2-(4′-fluoro-2′-methyl-[1,1′-biphenyl]-3-yl)-7-(8-fluoro-5-methylchroman-6-yl)-5-methylpyrazolo[1,5-a]pyrimidin-6-yl)acetic acid] was tested. Which EC50 did it give?
Its EC50 is < 0.1 µM.

How did the EC50 turn out when `Cc1ncccc1-c1cccc(-c2cc3nc(C)c([C@H](OC(C)(C)C)C(=O)O)c(-c4cc(F)c5c(c4C)CCCO5)n3n2)c1` [Example 167, (2S)-2-(tert-Butoxy)-2-(7-(8-fluoro-5-methylchroman-6-yl)-5-methyl-2-(3-(2-methylpyridin-3-yl)phenyl)pyrazolo[1,5-a]pyrimidin-6-yl)acetic acid] was run?
Its EC50 is < 0.1 µM.

With `COc1cc(-c2cccc(-c3cc4nc(C)c([C@H](OC(C)(C)C)C(=O)O)c(-c5cc(F)c6c(c5C)CCCO6)n4n3)c2)ccn1` [Example 168, (2S)-2-(tert-Butoxy)-2-(7-(8-fluoro-5-methylchroman-6-yl)-2-(3-(2-methoxypyridin-4-yl)phenyl)-5-methylpyrazolo[1,5-a]pyrimidin-6-yl)acetic acid] as the molecule, how does the EC50 read?
The EC50 was < 0.1 µM.

For `COc1ccc(-c2cccc(-c3cc4nc(C)c([C@H](OC(C)(C)C)C(=O)O)c(-c5cc(F)c6c(c5C)CCCO6)n4n3)c2)cn1` [Example 169, (2S)-2-(tert-Butoxy)-2-(7-(8-fluoro-5-methylchroman-6-yl)-2-(3-(6-methoxypyridin-3-yl)phenyl)-5-methylpyrazolo[1,5-a]pyrimidin-6-yl)acetic acid], which EC50 is on record?
Its EC50 is < 0.1 µM.

`Cc1cc(-c2cccc(-c3cc4nc(C)c([C@H](OC(C)(C)C)C(=O)O)c(-c5cc(F)c6c(c5C)CCCO6)n4n3)c2)ccn1` [Example 170, (2S)-2-(tert-Butoxy)-2-(7-(8-fluoro-5-methylchroman-6-yl)-5-methyl-2-(3-(2-methylpyridin-4-yl)phenyl)pyrazolo[1,5-a]pyrimidin-6-yl)acetic acid] was tested. Which EC50 did it give?
Its EC50 is < 0.1 µM.

How did the EC50 turn out when `Cc1nc2cc(-c3cccc(-c4cncc(F)c4)c3)nn2c(-c2cc(F)c3c(c2C)CCCO3)c1[C@H](OC(C)(C)C)C(=O)O` [Example 171, (2S)-2-(tert-Butoxy)-2-(7-(8-fluoro-5-methylchroman-6-yl)-2-(3-(5-fluoropyridin-3-yl)phenyl)-5-methylpyrazolo[1,5-a]pyrimidin-6-yl)acetic acid] was run?
Its EC50 is < 0.1 µM.

With `Cc1nc2cc(-c3cccc(-c4cnc5ccccc5c4)c3)nn2c(-c2cc(F)c3c(c2C)CCCO3)c1[C@H](OC(C)(C)C)C(=O)O` [Example 172, (2S)-2-(tert-Butoxy)-2-(7-(8-fluoro-5-methylchroman-6-yl)-5-methyl-2-(3-(quinolin-3-yl)phenyl)pyrazolo[1,5-a]pyrimidin-6-yl)acetic acid] as the molecule, how does the EC50 read?
Its EC50 is < 0.1 µM.

For `Cc1nc2cc(-c3cccc(-c4ccccc4C(F)(F)F)c3)nn2c(-c2cc(F)c3c(c2C)CCCO3)c1[C@H](OC(C)(C)C)C(=O)O` [Example 173, (2S)-2-(tert-Butoxy)-2-(7-(8-fluoro-5-methylchroman-6-yl)-5-methyl-2-(2′-(trifluoromethyl)-[1,1′-biphenyl]-3-yl)pyrazolo[1,5-a]pyrimidin-6-yl)acetic acid], which EC50 is on record?
The EC50 was < 0.1 µM.

How did the EC50 turn out when `Cc1nc2cc(-c3cccc(-c4cnn(-c5ccccc5)c4C)c3)nn2c(-c2cc(F)c3c(c2C)CCCO3)c1[C@H](OC(C)(C)C)C(=O)O` [Example 174, (2S)-2-(tert-Butoxy)-2-(7-(8-fluoro-5-methylchroman-6-yl)-5-methyl-2-(3-(5-methyl-1-phenyl-1H-pyrazol-4-yl)phenyl)pyrazolo[1,5-a]pyrimidin-6-yl)acetic acid] was run?
Its EC50 is < 0.1 µM.

`Cc1nc2cc(-c3cccc(-c4ccnc(N5CCN(C)CC5)c4)c3)nn2c(-c2cc(F)c3c(c2C)CCCO3)c1[C@H](OC(C)(C)C)C(=O)O` [Example 175, (2S)-2-(tert-Butoxy)-2-(7-(8-fluoro-5-methylchroman-6-yl)-5-methyl-2-(3-(2-(4-methylpiperazin-1-yl)pyridin-4-yl)phenyl)pyrazolo[1,5-a]pyrimidin-6-yl)acetic acid] was tested. Which EC50 did it give?
Its EC50 is < 0.1 µM.

Same assay, conditions: NL43, 120 h, read-out: EC50 μM

For `COc1ccncc1-c1cccc(-c2nn3c(-c4cc(F)c5c(c4C)CCCO5)c([C@H](OC(C)(C)C)C(=O)O)c(C)nc3c2C)c1` [Example 160, (2S)-2-(tert-Butoxy)-2-(7-(8-fluoro-5-methylchroman-6-yl)-2-(3-(4-methoxypyridin-3-yl)phenyl)-3,5-dimethylpyrazolo[1,5-a]pyrimidin-6-yl)acetic acid], which EC50 is on record?
The EC50 was 0.01 µM.

`Cc1nc2c(C)c(-c3ccccc3)nn2c(-c2cc(F)c3c(c2C)CCCO3)c1[C@H](OC(C)(C)C)C(=O)O` [Example 163, (2S)-2-(tert-Butoxy)-2-(7-(8-fluoro-5-methylchroman-6-yl)-3,5-dimethyl-2-phenylpyrazolo[1,5-a]pyrimidin-6-yl)acetic acid] was tested. Which EC50 did it give?
Its EC50 is 0.2 µM.
